Measurements: patent publication US9493446B2, “Orexin receptor antagonists which are [ortho bi-(hetero-)aryl]-[2-(meta bi-(hetero-)aryl)-pyrrolidin-1-yl]-methanone derivatives” (Actelion Pharmaceuticals Ltd, priority 2012, dated 2016)
Like-named read-outs stand apart in the source and are kept apart here.

Columns and labels:
orexin-1 = orexin-1 (Homo sapiens (Human), UniProt O43613); assay: Intracellular calcium measurement (FLIPR), CHO cells expressing human orexin-1 receptor, 3 nM orexin-A; format: cell-based; settings: read-out: IC50 OX1
orexin-1, sequence (O43613 whole entry): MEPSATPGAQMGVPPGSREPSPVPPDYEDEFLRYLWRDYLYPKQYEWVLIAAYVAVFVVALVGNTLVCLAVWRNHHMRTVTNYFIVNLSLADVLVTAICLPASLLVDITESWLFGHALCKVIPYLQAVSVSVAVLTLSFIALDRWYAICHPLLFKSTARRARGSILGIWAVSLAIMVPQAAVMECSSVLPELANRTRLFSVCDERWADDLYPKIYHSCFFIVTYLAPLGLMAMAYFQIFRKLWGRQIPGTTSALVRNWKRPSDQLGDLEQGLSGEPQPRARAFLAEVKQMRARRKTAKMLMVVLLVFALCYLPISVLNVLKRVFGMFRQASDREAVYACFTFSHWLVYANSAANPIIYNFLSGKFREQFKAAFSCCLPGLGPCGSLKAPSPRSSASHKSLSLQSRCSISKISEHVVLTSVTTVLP
Procedure, shortened: (§1)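 HBSS buffer with 0.1% BSA, NaHCO3 and 20 mM HEPES carries both compounds and agonist. Dye: fluo-4 AM (3 μM) with 5 mM probenecid. Compound exposure 120 min; peak signal scored against uninhibited orexin-A response.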

human orexin-2 receptor = human orexin-2 receptor (Homo sapiens (Human), UniProt O43614); assay: Intracellular calcium measurement (FLIPR), CHO cells expressing human orexin-2 receptor, 3 nM orexin-A; format: cell-based; settings: read-out: IC50 OX2
human orexin-2 receptor, sequence (O43614 whole entry): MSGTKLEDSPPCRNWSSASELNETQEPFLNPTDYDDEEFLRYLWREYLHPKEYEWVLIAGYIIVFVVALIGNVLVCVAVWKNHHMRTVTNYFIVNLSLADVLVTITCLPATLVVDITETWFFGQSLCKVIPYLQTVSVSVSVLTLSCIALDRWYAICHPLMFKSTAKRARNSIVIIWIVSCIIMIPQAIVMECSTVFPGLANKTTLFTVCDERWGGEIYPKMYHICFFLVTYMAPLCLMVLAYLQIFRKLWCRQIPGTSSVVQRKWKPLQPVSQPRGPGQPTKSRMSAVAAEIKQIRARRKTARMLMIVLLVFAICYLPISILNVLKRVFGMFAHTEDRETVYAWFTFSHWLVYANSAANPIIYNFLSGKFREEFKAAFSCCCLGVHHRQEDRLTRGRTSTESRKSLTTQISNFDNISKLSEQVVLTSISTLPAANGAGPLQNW
Procedure, shortened: as §1

[1] = CHO cells expressing human orexin-1 receptor, FLIPR, 3 nM orexin-A, geometric mean if determined several times
[2] = CHO cells expressing human orexin-2 receptor, FLIPR, 3 nM orexin-A, geometric mean if determined several times

Structure (SMILES)	IC50 (orexin-1; [1]) [nM]	IC50 (human orexin-2 receptor; [2]) [nM]	IC50 (orexin-1) [nM]	IC50 (human orexin-2 receptor) [nM]
Cc1ccc(-n2nccn2)c(C(=O)N2CCC[C@H]2c2nc(-c3cc(C)ccc3C)no2)c1 [compound 84, {(S)-2-[3-(2,5-Dimethyl-phenyl)-[1,2,4]oxadiazol-5-yl]-pyrrolidin-1-yl}-(5-methyl-2-[1,2,3]triazol-2-yl-phenyl)-methanone]	63	8	–	–
Cc1ccc(-c2ccccc2)c(C(=O)N2CCC[C@H]2c2nc(-c3cccc(Cl)c3C)no2)c1 [compound 88]	49	11	–	–
Cc1ccc(-n2cccn2)c(C(=O)N2CCC[C@H]2c2nc(-c3cccc(Cl)c3C)no2)c1 [compound 89]	97	14	–	–
Cc1ccc(-c2ccccn2)c(C(=O)N2CCC[C@H]2c2nc(-c3cccc(Cl)c3C)no2)c1 [compound 90]	137	25	–	–
Cc1cccc(-c2oc(C)nc2C(=O)N2CCC[C@H]2c2nc(-c3cccc(Cl)c3C)no2)c1 [compound 91]	104	91	–	–
Cc1cccc(-c2ocnc2C(=O)N2CCC[C@H]2c2nc(-c3cccc(Cl)c3C)no2)c1 [compound 92]	120	53	–	–
Cc1c(Cl)cccc1-c1noc([C@@H]2CCCN2C(=O)c2ccccc2-n2nccn2)n1 [compound 93]	399	28	–	–
Cc1c(Cl)cccc1-c1noc([C@@H]2CCCN2C(=O)c2ncsc2-c2cccc(Cl)c2)n1 [compound 94]	237	201	–	–
Cc1ccc(C(=O)N2CCC[C@H]2c2nc(-c3cccc(Cl)c3C)no2)c(-n2nccn2)c1 [compound 96]	109	12	–	–
Cc1c(Cl)cccc1-c1noc([C@@H]2CCCN2C(=O)c2cc(C(F)(F)F)ccc2-n2nccn2)n1 [compound 97]	568	194	–	–
Cc1cccc(-n2nccn2)c1C(=O)N1CCC[C@H]1c1nc(-c2cccc(Cl)c2C)no1 [compound 98]	462	127	–	–
Cc1c(Cl)cccc1-c1noc([C@@H]2CCCN2C(=O)c2cc(OC(F)(F)F)ccc2-n2nccn2)n1 [compound 99]	–	614	895	–
COc1ccc(-n2nccn2)c(C(=O)N2CCC[C@H]2c2nc(-c3cccc(Cl)c3C)no2)c1 [compound 100]	–	8	92	–
COc1ccc(-c2ccccc2)c(C(=O)N2CCC[C@H]2c2nc(-c3cccc(Cl)c3C)no2)c1 [compound 101, {(S)-2-[3-(3-Chloro-2-methyl-phenyl)-[1,2,4]oxadiazol-5-yl]-pyrrolidin-1-yl}-(4-methoxy-biphenyl-2-yl)-methanone]	9	6	–	–
COc1cc(C(=O)N2CCC[C@H]2c2nc(-c3cccc(Cl)c3C)no2)c(-n2nccn2)cc1C [compound 103]	30	2	–	–
Cc1c(Cl)cccc1-c1noc([C@@H]2CCCN2C(=O)c2cc(F)ccc2-n2nccn2)n1 [compound 104]	1030	–	–	38
COc1cc(C(=O)N2CCC[C@H]2c2nc(-c3cccc(Cl)c3C)no2)c(-n2cccn2)cc1C [compound 105]	–	8	133	–
COc1ccc(-n2cccn2)c(C(=O)N2CCC[C@H]2c2nc(-c3cccc(Cl)c3C)no2)c1 [compound 106]	327	28	–	–
Cc1c(Cl)cccc1-c1noc([C@@H]2CCCN2C(=O)c2cccnc2-c2ccccn2)n1 [compound 107]	1040	79	–	–
Cc1ccc(-n2cccn2)c(C(=O)N2CCC[C@H]2c2nc(-c3cccc(Cl)c3C)no2)n1 [compound 109]	–	–	976	199
Cc1c(Cl)cccc1-c1noc([C@@H]2CCCN2C(=O)c2cc(F)c(F)cc2-n2nccn2)n1 [compound 110]	1690	159	–	–
Cc1c(Cl)cccc1-c1noc([C@@H]2CCCN2C(=O)c2ccc(F)cc2-n2cccn2)n1 [compound 111]	1150	261	–	–
Cc1c(Cl)cccc1-c1noc([C@@H]2CCCN2C(=O)c2ccc(F)cc2-n2nccn2)n1 [compound 112]	833	–	–	121
Cc1c(Cl)cccc1-c1noc([C@@H]2CCCN2C(=O)c2cccc(F)c2-n2cccn2)n1 [compound 113]	1200	146	–	–
Cc1c(Cl)cccc1-c1noc([C@@H]2CCCN2C(=O)c2cccc(F)c2-n2nccn2)n1 [compound 114]	–	–	1080	83
Cc1cc(C(=O)N2CCC[C@H]2c2nc(-c3cccc(Cl)c3C)no2)c(-n2cccn2)cc1C [compound 115]	78	6	–	–

Structure (SMILES)	IC50 (orexin-1; [1]) [nM]	IC50 (human orexin-2 receptor; [2]) [nM]	IC50 (orexin-1) [nM]	IC50 (human orexin-2 receptor) [nM]
Cc1c(Cl)cccc1-c1noc([C@@H]2CCCN2C(=O)c2cc(F)ccc2-c2ccn[nH]2)n1 [compound 116]	457	34	–	–
Cc1c(Cl)cccc1-c1noc([C@@H]2CCCN2C(=O)c2cccc(F)c2-c2ccn[nH]2)n1 [compound 117]	–	5	211	–
COc1ccc(C(=O)N2CCC[C@H]2c2nc(-c3cccc(Cl)c3C)no2)c(-n2nccn2)c1 [compound 118]	–	–	260	48
Cc1cc(C)c(-n2nccn2)c(C(=O)N2CCC[C@H]2c2nc(-c3cccc(Cl)c3C)no2)c1 [compound 119]	188	–	–	24
Cc1c(Cl)cccc1-c1noc([C@@H]2CCCN2C(=O)c2ccccc2-c2ncco2)n1 [compound 120]	483	–	–	37
Cc1c(Cl)cccc1-c1noc([C@@H]2CCCN2C(=O)c2ccc(Cl)cc2-n2nccn2)n1 [compound 121]	–	15	145	–
Cc1c(Cl)cccc1-c1noc([C@@H]2CCCN2C(=O)c2ccc(C(F)(F)F)cc2-n2nccn2)n1 [compound 122]	–	221	933	–
Cc1nc(C(=O)N2CCC[C@H]2c2nc(-c3cccc(Cl)c3C)no2)c(-c2cccc(F)c2)s1 [compound 123]	133	111	–	–
Cc1nc(C(=O)N2CCC[C@H]2c2nc(-c3cccc(Cl)c3C)no2)c(-c2ccccc2F)s1 [compound 124]	145	77	–	–
Cc1nc(C(=O)N2CCC[C@H]2c2nc(-c3cccc(Cl)c3C)no2)c(-c2ccc(F)cc2)s1 [compound 125]	353	80	–	–
Cc1cccc(-c2sc(C)nc2C(=O)N2CCC[C@H]2c2nc(-c3cccc(Cl)c3C)no2)c1 [compound 126]	221	118	–	–
Cc1ncc(C(=O)N2CCC[C@H]2c2nc(-c3cccc(Cl)c3C)no2)c(-c2cccc(Cl)c2)n1 [compound 127]	581	–	–	125
COc1cccc(-c2nccnc2C(=O)N2CCC[C@H]2c2nc(-c3cccc(Cl)c3C)no2)c1 [compound 128]	–	181	200	–
Cc1ccc(C(=O)N2CCC[C@H]2c2nc(-c3cccc(Cl)c3C)no2)c(-n2nccn2)c1C [compound 129]	–	287	419	–
COc1cc(C(=O)N2CCC[C@H]2c2nc(-c3cccc(Cl)c3C)no2)c(-n2nccn2)cc1F [compound 130]	188	16	–	–
Cc1ccc(-c2ncco2)c(C(=O)N2CCC[C@H]2c2nc(-c3cccc(Cl)c3C)no2)c1 [compound 131]	–	–	45	8
Cc1cc(F)cc(C(=O)N2CCC[C@H]2c2nc(-c3cccc(Cl)c3C)no2)c1-n1nccn1 [compound 132]	831	–	–	250
COc1cc(C(=O)N2CCC[C@H]2c2nc(-c3cccc(Cl)c3C)no2)c(-n2nccn2)cc1OC [compound 133]	522	36	–	–
Cc1noc(-c2ccccc2C(=O)N2CCC[C@H]2c2nc(-c3ccccc3OC(F)(F)F)no2)n1 [compound 134]	274	219	–	–
O=C(c1ccccc1-c1ccccc1)N1CCC[C@H]1c1nc(-c2ccccc2OC(F)(F)F)no1 [compound 135, Biphenyl-2-yl-{(S)-2-[3-(2-trifluoromethoxy-phenyl)-[1,2,4]oxadiazol-5-yl]-pyrrolidin-1-yl}-methanone]	60	17	–	–
Cc1ccc(-c2ccccc2)c(C(=O)N2CCC[C@H]2c2nc(-c3ccccc3OC(F)(F)F)no2)c1 [compound 136, (4-Methyl-biphenyl-2-yl)-{(S)-2-[3-(2-trifluoromethoxy-phenyl)-[1,2,4]oxadiazol-5-yl]-pyrrolidin-1-yl}-methanone]	12	9	–	–
Cc1ccc(-n2cccn2)c(C(=O)N2CCC[C@H]2c2nc(-c3ccccc3OC(F)(F)F)no2)c1 [compound 137, (5-Methyl-2-pyrazol-1-yl-phenyl)-{(S)-2-[3-(2-trifluoromethoxy-phenyl)-[1,2,4]oxadiazol-5-yl]-pyrrolidin-1-yl}-methanone]	33	23	–	–
Cc1ccc(-c2ccccn2)c(C(=O)N2CCC[C@H]2c2nc(-c3ccccc3OC(F)(F)F)no2)c1 [compound 138, (5-Methyl-2-pyridin-2-yl-phenyl)-{(S)-2-[3-(2-trifluoromethoxy-phenyl)-[1,2,4]oxadiazol-5-yl]-pyrrolidin-1-yl}-methanone]	49	30	–	–
Cc1cccc(-c2oc(C)nc2C(=O)N2CCC[C@H]2c2nc(-c3ccccc3OC(F)(F)F)no2)c1 [compound 139, (2-Methyl-5-m-tolyl-oxazol-4-yl)-{(S)-2-[3-(2-trifluoromethoxy-phenyl)-[1,2,4]oxadiazol-5-yl]-pyrrolidin-1-yl}-methanone]	124	62	–	–
Cc1cccc(-c2ocnc2C(=O)N2CCC[C@H]2c2nc(-c3ccccc3OC(F)(F)F)no2)c1 [compound 140, (5-m-Tolyl-oxazol-4-yl)-{(S)-2-[3-(2-trifluoromethoxy-phenyl)-[1,2,4]oxadiazol-5-yl]-pyrrolidin-1-yl}-methanone]	100	45	–	–
